This is an account of results in article PMC4891657, “Orexin 2 Receptor Antagonism is Sufficient to Promote NREM and REM Sleep from Mouse to Man” (Scientific Reports, 2016).

Structures are written as SMILES. Where a chain is given by its changes, count along the chain named.

Experiment [1] concerns the target T1, OX1R (Mus musculus, UniProt P58307).
T1 construct: expressed in transfected cells; host or cells: CHO-K1
T1 sequence (P58307 1-416): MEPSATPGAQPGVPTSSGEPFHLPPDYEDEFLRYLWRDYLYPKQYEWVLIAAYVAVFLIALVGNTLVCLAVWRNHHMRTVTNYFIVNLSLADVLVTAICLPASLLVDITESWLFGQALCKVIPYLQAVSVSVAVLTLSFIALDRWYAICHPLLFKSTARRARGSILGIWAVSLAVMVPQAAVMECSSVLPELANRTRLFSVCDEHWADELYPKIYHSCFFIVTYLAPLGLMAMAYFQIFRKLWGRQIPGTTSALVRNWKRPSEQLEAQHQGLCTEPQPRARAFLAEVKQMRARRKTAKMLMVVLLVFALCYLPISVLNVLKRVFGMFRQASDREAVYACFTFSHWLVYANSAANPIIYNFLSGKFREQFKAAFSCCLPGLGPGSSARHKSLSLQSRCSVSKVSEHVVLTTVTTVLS
Description: Inhibition of orexin-peptide-A-induced calcium mobilization in CHO cells, mouse OX1R. It counts as cell-based. On the procedure:
(§1) MK-1064 was evaluated for its ability to inhibit orexin-peptide-A-induced calcium mobilization in CHO cell lines separately expressing OX1R and OX2R from mice, rats, rabbits, dogs, rhesus monkeys and humans.
(§2) Binding and functional blockade of OX1R and OX2R with MK-1064 relative to other 2-SORAs and the DORA, MK-6096, were assessed using membranes from Chinese hamster ovary (CHO)-K1 cells (American Type Tissue Collection, Manassas, VA) transfected to express human, mouse, rat, rabbit, dog, or rhesus monkey OX1R or OX2R receptors, as described previously. The kinetics of binding to human OX2R was assessed by radioligand displacement on CHO-K1 cells expressing the receptor. […] The ON rate analysis was performed by presoaking GF/B filters in 0.3% polyethyleneimine (Sigma) using a Skatron 12-well cell harvester and cold buffer at the indicated time points after addition. For OFF rate determination, binding reactions were allowed to proceed to equilibrium and terminated with 1000x [Kd] of unlabeled antagonist and filtered as above at pre-determined time points. Ultima Gold^TM (PerkinElmer 6013327) scintillation cocktail was added to each filter disc and counted on a PerkinElmer TriCarb 2910 scintillation counter. Data were analyzed using GraphPad® Prism v 6.04 (San Diego, CA, USA). The KON rate was determined according to the equation, KON = (KOBS − KOFF)/[ligand].
For orientation: Calcium assays in cells follow changes in intracellular calcium, usually with a dye or a luminescent sensor.

Experiment [2] has as its target T2, OX1R (Rattus norvegicus, UniProt P56718).
T2 construct: expressed in transfected cells; host or cells: CHO-K1
T2 sequence (P56718 1-416): T1 sequence (P58307 1-416) with Q116H, H205R, I221F, A232G, R245P, G383S
Description: Inhibition of orexin-peptide-A-induced calcium mobilization in CHO cells, rat OX1R. It counts as cell-based. On the procedure: as §1, §2

Experiment [3] deals with T3, OX1R (Oryctolagus cuniculus, UniProt G1SPJ3).
T3 sequence (G1SPJ3 1-416): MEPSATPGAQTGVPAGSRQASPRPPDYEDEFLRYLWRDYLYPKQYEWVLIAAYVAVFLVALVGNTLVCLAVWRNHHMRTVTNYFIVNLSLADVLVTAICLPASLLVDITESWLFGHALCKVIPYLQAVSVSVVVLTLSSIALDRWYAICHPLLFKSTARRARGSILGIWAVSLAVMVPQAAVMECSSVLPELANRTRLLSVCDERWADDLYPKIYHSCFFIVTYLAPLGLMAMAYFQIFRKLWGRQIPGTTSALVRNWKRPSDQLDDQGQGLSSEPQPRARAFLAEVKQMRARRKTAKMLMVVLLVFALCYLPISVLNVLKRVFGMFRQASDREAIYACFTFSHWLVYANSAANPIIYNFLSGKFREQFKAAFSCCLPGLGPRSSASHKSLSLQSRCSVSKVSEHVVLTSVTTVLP
Description: Radio-ligand displacement binding, CHO-K1 membranes, rabbit OX1R. To be noted: read-out: OX1R affinity (Ki). On the procedure: as §1, §2

Experiment [4] deals with T2, OX1R. Description: Radio-ligand displacement binding, CHO-K1 membranes, rat OX1R. To be noted: read-out: OX1R affinity (Ki). Here is the method: as §1, §2
Another experiment deals with T4, OX2R (Mus musculus, UniProt P58308).
T4 construct: expressed in transfected cells; host or cells: CHO-K1
T4 sequence (P58308 1-460): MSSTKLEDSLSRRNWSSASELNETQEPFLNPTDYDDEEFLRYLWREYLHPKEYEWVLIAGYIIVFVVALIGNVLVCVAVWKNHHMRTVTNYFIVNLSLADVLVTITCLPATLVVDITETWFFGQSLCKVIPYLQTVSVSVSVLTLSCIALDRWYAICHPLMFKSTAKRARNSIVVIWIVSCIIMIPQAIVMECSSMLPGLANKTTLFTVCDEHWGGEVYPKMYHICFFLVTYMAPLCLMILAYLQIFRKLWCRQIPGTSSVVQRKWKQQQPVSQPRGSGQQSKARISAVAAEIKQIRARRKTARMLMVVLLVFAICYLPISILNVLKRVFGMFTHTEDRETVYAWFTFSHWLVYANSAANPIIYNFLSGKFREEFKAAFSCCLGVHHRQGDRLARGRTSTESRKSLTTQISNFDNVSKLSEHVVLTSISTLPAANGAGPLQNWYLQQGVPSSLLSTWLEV
Description: Radio-ligand displacement binding, CHO-K1 membranes, mouse OX2R. Conditions: for fold OX2R selectivity (Ki): OX1R Ki / OX2R Ki; for Ki: read-out: OX2R affinity (Ki). Here is the method:
as §1, §2

A further experiment has as its target T5, hOX1R (Homo sapiens, UniProt O43613).
T5 construct: expressed in transfected cells; host or cells: CHO-K1
T5 sequence (O43613 1-425): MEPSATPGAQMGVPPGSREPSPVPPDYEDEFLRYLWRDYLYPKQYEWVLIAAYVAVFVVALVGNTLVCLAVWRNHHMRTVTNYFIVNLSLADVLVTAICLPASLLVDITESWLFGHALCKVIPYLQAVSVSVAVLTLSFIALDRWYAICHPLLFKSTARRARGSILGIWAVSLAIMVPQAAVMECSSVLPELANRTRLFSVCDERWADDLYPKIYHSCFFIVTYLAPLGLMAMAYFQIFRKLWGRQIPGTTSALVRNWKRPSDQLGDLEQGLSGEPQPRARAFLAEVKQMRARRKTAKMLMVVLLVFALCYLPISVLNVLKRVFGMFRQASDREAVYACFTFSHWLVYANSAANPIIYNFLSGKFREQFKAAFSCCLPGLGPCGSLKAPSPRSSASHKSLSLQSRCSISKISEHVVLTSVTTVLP
Description: Inhibition of orexin-peptide-A-induced calcium mobilization in CHO cells, human OX1R. In kind it is cell-based. On the procedure: as §1, §2

Experiment [5] addresses T1, OX1R. Description: Radio-ligand displacement binding, CHO-K1 membranes, mouse OX1R. Conditions: read-out: OX1R affinity (Ki). Here is the method:
as §1, §2

Turning to `COc1ccc(CNC(=O)c2cc(-c3cncc(C)c3)ncc2-c2ccccc2)nc1OC` [2-SORA-7], the figures for the Kb at OX1R [1], at OX1R [2] and on hOX1R were 7.95 µM, 58.3 µM and 4360 nM, respectively. Also, the inhibition constant (Ki) (usually the dissociation constant of the complex between target and ligand, obtained from inhibition or displacement) was found to be 4390 nM at OX1R [3], 2610 nM on OX1R [4], 0.83 nM at OX2R and 1690 nM at OX1R [5]. For the same compound, the “fold OX2R selectivity (Ki)” value on OX2R was “[2040] fold”.

Regarding `COc1ccc(CNC(=O)c2cc(-c3cc(Cl)cc(Cl)c3)cnc2-c2cccnc2)cc1OC` [2-SORA-18], the Kb worked out at 0.208 µM at OX1R [1], 1.05 µM on OX1R [2] and 161 nM on hOX1R. Also, the Ki turned out to be 241 nM at OX1R [3], 94 nM on OX1R [4], 0.15 nM on OX2R and 98 nM on OX1R [5]. Also, the “fold OX2R selectivity (Ki)” value on OX2R is “[653] fold”.

With `COc1ccc(CNC(=O)c2cc(-c3cncc(Cl)c3)cnc2-c2ccccn2)nc1OC` [MK-1064, 5″-chloro-N-[(5,6-dimethoxypyridin-2-yl)methyl]-2,2′:5′, 3″-terpyridine-3′-carbo xamide], the Kb came to 10.3 µM at OX1R [1], 7.97 µM on OX1R [2] and 1870 nM on hOX1R. Besides, the inhibitory constant (Ki) at OX1R [3] amounted to 2440 nM; at OX1R [4], 1070 nM; at OX2R it was 1.02 nM; on OX1R [5] it was 1160 nM. Besides, the “fold OX2R selectivity (Ki)” value on OX2R is “[1136] fold”.

In the case of `COc1ccc(CNC(=O)c2cc(-c3cncc(C)c3)ncc2-c2nccs2)nc1OC` [MK-3697], the Kb on OX1R [1] stood at 27.2 µM; at OX1R [2], 36.4 µM. Further, the Ki at OX1R [3] worked out at 4740 nM; at OX1R [4], 2390 nM; on OX2R it was 1.47 nM; on OX1R [5], 3950 nM.

Take `Cc1ccc(-c2ncccn2)c(C(=O)N2C[C@H](COc3ccc(F)cn3)CC[C@H]2C)c1` [MK-6096]: the Kb on OX1R [1] was determined as 0.009 µM; at OX1R [2], 0.01 µM; at hOX1R it was 11 nM. In addition, the inhibition constant (Ki) was determined as 2.6 nM at OX1R [3], 2.5 nM at OX1R [4], 0.56 nM on OX2R and 2.9 nM at OX1R [5]. Moreover, the “fold OX2R selectivity (Ki)” value at OX2R was “[5.2] fold”.
